In patent publication US20230175033A1, “PRODUCTION OF JASMONATES IN FILAMENTOUS FUNGI” (Sumitomo Chemical Company, Limited, priority 2020, published 2023):
Like-named read-outs stand apart in the source and are kept apart here.

Key:
[1] = tested on: Lasiodiplodia iranensis DWH-2; assay: JA production by Lasiodiplodia iranensis cultures under shaking conditions, JA content by HPLC; format: cell-based
[2] = tested on: Lasiodiplodia iranensis DWH-2; assay: Morphology of Lasiodiplodia iranensis cultures under shaking conditions; format: cell-based; conditions: shaking 250 rpm, 30° C.
[3] = shaker 250 rpm, 30° C., eight days, 200 mg/L IAA and sodium butyrate, 100 mg/L SA and ASA, 10 mg/L VA, 2 mM H2O2

SMILES	Titer (mg/L), production of JA with a jasmonate production elicitor [1, 3] [mg/L]	other results
O=C([O-])Cc1c[nH]c2ccccc12.[Na+] [IAA, Indole-3-acetic acid sodium salt]	400	
CC(C)=CCCC(C)=CCCC(C)=CCO [farnesol]		effect on fungal morphology ([2]; 100 mg/L farnesol, nine days): induced mycelial aggregation
CCCC(CCC)C(=O)[O-].[Na+] [VA, valproic acid sodium salt]	350	
CCCC(=O)[O-].[Na+] [Sodium butyrate, sodium butyrate]		Titer (mg/L), production of JA with a jasmonate production elicitor [1]: 175 mg/L
OCCc1ccc(O)cc1 [tyrosol]		effect on fungal morphology ([2]; 100 mg/L tyrosol, seven days): induced mycelial aggregation
CC(=O)Oc1ccccc1C(=O)O [ASA, acetylsalicylic acid]	100	
O=C([O-])c1ccccc1O.[Na+] [SA, salicylic acid sodium salt]		Titer (mg/L), production of JA with a jasmonate production elicitor [1]: 150 mg/L
OO [H2O2, hydrogen peroxide]	160	
